pIC50, pKd, pKi: −log10 of the molar value. Active and inactive are the calls of the source. No cut-off for these calls is given here.
Assays:
P19 [1] = assay: Induction of cell death in mouse P19 cell differentiation model at 1 uM preincubated for 4 days followed by cytosine arabinoside addition measured after 6 hrs by immunostaining based microscopic analysis; format: functional; settings: time 102.0 hrs
[2] = target: T1, Tyrosine-protein kinase ABL1 (Homo sapiens, UniProt P00519); assay: Inhibition of tracer K5 binding to NanoLuc-fused ABL1 (unknown origin) expressed in HEK293T cells measured after 2 hrs by NanoBRET assay; format: cell-based
T1 sequence (P00519 whole entry, the tested form may be a part): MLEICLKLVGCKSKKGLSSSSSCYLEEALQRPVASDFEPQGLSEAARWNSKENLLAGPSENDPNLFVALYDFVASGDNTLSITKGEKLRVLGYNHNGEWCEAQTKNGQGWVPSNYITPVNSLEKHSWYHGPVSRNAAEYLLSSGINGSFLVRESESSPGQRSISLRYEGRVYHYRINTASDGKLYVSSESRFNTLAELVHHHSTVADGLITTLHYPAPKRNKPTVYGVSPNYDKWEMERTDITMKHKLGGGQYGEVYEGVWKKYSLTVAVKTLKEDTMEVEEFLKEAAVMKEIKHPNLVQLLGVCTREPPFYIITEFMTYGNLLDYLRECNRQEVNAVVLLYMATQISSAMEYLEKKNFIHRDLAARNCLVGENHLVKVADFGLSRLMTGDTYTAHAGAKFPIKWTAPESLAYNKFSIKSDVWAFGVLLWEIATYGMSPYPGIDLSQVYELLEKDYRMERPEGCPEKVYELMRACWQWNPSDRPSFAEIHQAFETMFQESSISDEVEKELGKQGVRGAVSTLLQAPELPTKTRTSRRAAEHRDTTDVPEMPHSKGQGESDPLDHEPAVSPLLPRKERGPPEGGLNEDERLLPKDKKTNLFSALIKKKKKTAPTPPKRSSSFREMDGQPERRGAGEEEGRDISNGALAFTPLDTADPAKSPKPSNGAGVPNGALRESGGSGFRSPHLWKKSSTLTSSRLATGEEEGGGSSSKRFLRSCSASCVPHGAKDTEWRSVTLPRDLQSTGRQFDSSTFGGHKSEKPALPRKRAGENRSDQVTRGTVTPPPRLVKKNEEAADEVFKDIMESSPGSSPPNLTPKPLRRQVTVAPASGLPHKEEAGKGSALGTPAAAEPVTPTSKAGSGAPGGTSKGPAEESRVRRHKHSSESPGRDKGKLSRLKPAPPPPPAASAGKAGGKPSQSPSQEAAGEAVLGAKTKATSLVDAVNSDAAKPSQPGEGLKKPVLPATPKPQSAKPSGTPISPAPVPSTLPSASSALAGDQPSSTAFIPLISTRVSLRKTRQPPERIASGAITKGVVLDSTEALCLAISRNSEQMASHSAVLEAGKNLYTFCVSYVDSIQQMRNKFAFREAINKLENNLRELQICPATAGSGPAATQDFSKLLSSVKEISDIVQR

P19 [3] = assay: Induction of beta3-tubulin abundance in mouse P19 cells at 1 uM preincubated for 4 days followed by cytosine arabinoside addition measured after 6 hrs by immunostaining based microscopic analysis; format: functional, cell-based; settings: time 4.0 day
[4] = target: T2, Tyrosine-protein kinase Mer (Homo sapiens, UniProt Q12866); assay: Inhibition of tracer K5 binding to NanoLuc-fused MERTK (unknown origin) expressed in HEK293T cells measured after 2 hrs by NanoBRET assay; format: cell-based
T2 sequence (Q12866 whole entry): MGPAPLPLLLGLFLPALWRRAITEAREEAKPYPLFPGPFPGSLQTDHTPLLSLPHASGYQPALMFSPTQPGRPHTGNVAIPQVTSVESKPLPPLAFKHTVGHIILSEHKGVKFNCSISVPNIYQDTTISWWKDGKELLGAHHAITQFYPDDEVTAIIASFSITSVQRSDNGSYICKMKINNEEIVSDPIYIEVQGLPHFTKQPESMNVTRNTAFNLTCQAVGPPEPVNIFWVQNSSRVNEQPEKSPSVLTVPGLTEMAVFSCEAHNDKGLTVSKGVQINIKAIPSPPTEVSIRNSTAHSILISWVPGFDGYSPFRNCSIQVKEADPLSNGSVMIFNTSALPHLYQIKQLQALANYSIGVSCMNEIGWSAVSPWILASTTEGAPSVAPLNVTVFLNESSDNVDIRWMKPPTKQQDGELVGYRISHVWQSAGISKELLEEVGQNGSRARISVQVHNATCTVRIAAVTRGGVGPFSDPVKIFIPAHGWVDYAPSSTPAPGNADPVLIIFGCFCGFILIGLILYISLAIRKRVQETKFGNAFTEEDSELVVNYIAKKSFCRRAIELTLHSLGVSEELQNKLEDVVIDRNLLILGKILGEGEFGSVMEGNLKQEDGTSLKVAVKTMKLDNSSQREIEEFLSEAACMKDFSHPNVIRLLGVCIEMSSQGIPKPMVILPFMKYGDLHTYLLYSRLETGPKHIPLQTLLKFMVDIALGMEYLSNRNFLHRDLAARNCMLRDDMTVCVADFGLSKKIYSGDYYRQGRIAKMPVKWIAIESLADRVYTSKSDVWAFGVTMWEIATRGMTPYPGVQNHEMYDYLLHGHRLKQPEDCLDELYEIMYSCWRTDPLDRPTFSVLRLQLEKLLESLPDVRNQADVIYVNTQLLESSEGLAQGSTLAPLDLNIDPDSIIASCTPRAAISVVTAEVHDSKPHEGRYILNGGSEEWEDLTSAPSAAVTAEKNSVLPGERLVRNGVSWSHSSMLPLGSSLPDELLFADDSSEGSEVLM

[5] = target: T3, Tyrosine-protein kinase receptor UFO (Homo sapiens, UniProt P30530); assay: Inhibition of tracer K5 binding to NanoLuc-fused AXL (unknown origin) expressed in HEK293T cells measured after 2 hrs by NanoBRET assay; format: cell-based
T3 sequence (P30530 whole entry): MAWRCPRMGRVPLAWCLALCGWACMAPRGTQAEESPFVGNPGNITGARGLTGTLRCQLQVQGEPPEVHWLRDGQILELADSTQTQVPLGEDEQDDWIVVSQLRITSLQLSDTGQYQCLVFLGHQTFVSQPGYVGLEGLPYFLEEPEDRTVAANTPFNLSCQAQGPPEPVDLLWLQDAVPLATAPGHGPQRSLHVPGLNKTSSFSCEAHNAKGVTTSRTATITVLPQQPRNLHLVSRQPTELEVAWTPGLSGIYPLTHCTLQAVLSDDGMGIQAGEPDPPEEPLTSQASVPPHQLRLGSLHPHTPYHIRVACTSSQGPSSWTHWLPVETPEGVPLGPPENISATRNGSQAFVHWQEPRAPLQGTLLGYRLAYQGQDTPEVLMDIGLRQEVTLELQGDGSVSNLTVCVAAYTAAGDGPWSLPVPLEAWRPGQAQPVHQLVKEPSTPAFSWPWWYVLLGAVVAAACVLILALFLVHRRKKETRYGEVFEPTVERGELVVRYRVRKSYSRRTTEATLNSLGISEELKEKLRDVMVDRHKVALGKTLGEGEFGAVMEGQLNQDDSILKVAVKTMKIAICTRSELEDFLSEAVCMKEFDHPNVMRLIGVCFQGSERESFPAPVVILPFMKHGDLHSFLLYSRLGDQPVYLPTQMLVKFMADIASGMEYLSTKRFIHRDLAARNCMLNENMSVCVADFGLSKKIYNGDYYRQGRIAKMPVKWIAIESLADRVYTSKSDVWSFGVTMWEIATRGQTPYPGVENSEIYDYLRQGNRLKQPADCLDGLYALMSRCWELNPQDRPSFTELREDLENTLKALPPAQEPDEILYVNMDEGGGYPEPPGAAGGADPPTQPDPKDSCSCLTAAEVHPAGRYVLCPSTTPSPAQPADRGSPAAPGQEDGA

P19 [6] = assay: Induction of cell death in mouse P19 cell differentiation model at 2 uM preincubated for 4 days followed by cytosine arabinoside addition measured after 6 hrs by immunostaining based microscopic analysis; format: functional; settings: time 102.0 hrs
[7] = target: T4, Tyrosine-protein kinase receptor TYRO3 (Homo sapiens, UniProt Q06418); assay: Inhibition of tracer K5 binding to NanoLuc-fused TYRO3 (unknown origin) expressed in HEK293T cells measured after 2 hrs by NanoBRET assay; format: cell-based
T4 sequence (Q06418 whole entry): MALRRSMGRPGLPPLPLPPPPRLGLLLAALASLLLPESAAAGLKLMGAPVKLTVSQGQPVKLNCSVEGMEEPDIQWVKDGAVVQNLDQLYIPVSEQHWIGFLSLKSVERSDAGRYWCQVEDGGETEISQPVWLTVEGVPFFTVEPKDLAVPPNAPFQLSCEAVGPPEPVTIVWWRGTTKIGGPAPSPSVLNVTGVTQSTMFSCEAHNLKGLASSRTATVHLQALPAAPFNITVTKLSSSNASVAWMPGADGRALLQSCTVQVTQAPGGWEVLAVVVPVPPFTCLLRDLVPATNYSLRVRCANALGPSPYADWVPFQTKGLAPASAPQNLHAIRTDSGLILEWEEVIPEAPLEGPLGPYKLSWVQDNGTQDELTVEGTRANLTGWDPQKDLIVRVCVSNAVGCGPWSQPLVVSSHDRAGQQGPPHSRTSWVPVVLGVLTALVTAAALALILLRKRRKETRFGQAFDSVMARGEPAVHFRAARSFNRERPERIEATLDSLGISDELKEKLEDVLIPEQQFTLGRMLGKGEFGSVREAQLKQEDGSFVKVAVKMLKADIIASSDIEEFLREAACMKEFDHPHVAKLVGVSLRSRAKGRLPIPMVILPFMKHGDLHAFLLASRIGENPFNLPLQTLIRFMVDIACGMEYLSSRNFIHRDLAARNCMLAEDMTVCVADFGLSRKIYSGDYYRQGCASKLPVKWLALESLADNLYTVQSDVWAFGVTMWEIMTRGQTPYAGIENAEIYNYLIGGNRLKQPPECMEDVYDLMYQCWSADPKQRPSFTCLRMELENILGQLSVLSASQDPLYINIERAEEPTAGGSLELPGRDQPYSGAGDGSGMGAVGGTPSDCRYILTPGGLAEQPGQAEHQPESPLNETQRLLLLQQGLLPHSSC

[8] = target: T1, Tyrosine-protein kinase ABL1; assay: Binding affinity to human non-phosphorylated ABL1 by KINOMEscan scanMAX assay
[9] = target: T5, Tyrosine-protein kinase Mer (Homo sapiens) (UniProt Q12866); assay: Binding affinity to MERTK (571 to 864 residue) (unknown origin) expressed in Escherichia coli Rosetta cells assessed as change in melting temperature by SYPRO orange dye based DSF assay
T5 sequence (whole entry): T2 sequence (Q12866 whole entry)

[10] = target: T6, Ribosomal protein S6 kinase alpha-2 (Homo sapiens, UniProt Q15349); assay: Binding affinity to human N-terminal RSK3 kinase domain 1 at 1 uM by KINOMEscan scanMAX assay relative to control
T6 sequence (Q15349 whole entry, the tested form may be a part): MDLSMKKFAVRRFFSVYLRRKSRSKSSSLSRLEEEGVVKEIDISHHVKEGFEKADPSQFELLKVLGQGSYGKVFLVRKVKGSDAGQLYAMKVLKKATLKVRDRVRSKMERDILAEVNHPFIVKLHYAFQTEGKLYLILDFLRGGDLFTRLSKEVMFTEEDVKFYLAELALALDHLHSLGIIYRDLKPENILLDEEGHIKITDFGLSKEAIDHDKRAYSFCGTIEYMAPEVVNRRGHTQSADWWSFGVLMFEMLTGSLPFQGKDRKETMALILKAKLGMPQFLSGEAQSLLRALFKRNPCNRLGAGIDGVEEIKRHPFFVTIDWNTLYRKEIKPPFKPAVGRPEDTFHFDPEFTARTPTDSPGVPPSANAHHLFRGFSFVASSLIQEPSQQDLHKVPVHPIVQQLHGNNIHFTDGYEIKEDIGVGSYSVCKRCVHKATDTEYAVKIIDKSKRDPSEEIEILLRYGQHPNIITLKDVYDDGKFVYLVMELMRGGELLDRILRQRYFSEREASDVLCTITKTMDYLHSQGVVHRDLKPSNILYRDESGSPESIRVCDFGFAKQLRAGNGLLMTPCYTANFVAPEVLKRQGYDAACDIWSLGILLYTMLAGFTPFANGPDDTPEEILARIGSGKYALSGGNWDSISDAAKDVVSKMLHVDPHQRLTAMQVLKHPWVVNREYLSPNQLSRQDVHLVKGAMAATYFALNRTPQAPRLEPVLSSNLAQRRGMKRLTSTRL

[11] = target: Hepatocyte growth factor receptor (Homo sapiens) (UniProt P08581); assay: Binding affinity to human MET at 1 uM by KINOMEscan scanMAX assay relative to control
Chain of Hepatocyte growth factor receptor (Homo sapiens) (P08581 whole entry, canonical isoform): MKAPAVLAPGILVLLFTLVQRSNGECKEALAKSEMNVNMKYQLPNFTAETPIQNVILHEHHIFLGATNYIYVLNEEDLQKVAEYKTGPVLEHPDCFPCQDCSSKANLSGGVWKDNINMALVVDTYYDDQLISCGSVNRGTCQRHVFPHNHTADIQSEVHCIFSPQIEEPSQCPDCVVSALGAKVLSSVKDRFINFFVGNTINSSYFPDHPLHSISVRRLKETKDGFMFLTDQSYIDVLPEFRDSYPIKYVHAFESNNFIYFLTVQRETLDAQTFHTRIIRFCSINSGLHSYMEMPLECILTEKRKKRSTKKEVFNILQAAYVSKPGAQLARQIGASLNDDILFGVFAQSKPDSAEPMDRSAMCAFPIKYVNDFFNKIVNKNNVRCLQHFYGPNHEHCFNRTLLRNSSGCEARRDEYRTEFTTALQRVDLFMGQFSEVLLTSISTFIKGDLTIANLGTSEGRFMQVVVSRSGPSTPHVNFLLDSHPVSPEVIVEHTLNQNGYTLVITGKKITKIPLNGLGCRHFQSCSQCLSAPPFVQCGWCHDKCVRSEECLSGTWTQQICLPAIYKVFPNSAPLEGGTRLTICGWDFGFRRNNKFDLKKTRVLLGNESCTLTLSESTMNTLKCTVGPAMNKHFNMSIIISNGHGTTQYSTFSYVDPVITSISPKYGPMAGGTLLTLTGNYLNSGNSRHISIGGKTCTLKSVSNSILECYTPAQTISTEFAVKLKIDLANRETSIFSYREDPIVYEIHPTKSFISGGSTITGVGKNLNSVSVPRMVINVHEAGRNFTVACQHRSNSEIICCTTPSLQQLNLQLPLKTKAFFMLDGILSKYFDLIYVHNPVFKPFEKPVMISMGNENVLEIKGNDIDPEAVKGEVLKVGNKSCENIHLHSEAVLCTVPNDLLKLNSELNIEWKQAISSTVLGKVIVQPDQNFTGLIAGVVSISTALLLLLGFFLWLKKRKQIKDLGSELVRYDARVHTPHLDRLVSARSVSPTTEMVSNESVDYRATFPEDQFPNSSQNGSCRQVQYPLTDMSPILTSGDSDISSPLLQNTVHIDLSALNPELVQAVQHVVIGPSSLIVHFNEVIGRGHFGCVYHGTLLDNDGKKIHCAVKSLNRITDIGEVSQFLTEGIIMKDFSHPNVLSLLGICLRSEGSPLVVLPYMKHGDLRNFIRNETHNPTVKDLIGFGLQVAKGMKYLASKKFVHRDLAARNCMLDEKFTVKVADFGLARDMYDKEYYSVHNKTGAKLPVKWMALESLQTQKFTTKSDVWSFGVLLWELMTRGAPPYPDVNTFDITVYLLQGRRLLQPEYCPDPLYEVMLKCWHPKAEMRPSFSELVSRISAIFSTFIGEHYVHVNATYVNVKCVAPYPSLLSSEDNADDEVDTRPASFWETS

[12] = target: T7, Casein kinase I isoform epsilon (Homo sapiens, UniProt P49674); assay: Binding affinity to human CSNK1E by KINOMEscan scanMAX assay
Target sequence in this assay (P49674 whole entry, canonical isoform): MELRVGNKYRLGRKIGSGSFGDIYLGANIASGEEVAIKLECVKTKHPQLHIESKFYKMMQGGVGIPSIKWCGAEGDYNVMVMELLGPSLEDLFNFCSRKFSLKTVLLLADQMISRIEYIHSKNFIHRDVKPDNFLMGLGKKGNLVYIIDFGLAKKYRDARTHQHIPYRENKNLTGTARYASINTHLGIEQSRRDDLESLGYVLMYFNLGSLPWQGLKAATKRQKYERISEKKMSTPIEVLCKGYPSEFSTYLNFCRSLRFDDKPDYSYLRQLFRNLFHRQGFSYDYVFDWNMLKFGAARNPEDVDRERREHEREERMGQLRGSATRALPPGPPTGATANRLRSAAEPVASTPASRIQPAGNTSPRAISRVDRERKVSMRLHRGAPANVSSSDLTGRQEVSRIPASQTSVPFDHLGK

[13] = target: Tyrosine-protein kinase receptor UFO (Homo sapiens) (UniProt P30530); assay: Binding affinity to human AXL at 1 uM by KINOMEscan scanMAX assay relative to control
[14] = target: T1, Tyrosine-protein kinase ABL1
Description: Binding affinity to non-phosphorylated ABL1 (unknown origin) assessed as change in melting temperature by SYPRO orange dye based DSF assay

Homo sapiens = organism: Homo sapiens; assay: Binding affinity to MERTK-AXL mutant (unknown origin) expressed in Escherichia coli Rosetta cells assessed as change in melting temperature by SYPRO orange dye based DSF assay
[15] = target: Tyrosine-protein kinase receptor UFO (Homo sapiens) (UniProt P30530); assay: Binding affinity to AXL (unknown origin) assessed as change in melting temperature by SYPRO orange dye based DSF assay
[16] = target: T2, Tyrosine-protein kinase Mer; assay: Binding affinity to human MERTK by KINOMEscan scanMAX assay
[17] = target: T1, Tyrosine-protein kinase ABL1; assay: Binding affinity to human non-phosphorylated ABL1 at 1 uM by KINOMEscan scanMAX assay relative to control
[18] = target: T5, Tyrosine-protein kinase Mer (Homo sapiens); assay: Binding affinity to human MERTK at 1 uM by KINOMEscan scanMAX assay relative to control
[19] = target: T7, Casein kinase I isoform epsilon; assay: Binding affinity to CSNK1E (unknown origin) assessed as change in melting temperature by SYPRO orange dye based DSF assay
Target sequence in this assay (P49674 whole entry, looked up, canonical isoform): as the sequence (P49674 whole entry, canonical isoform) above

[20] = target: T8, Mitogen-activated protein kinase kinase kinase 2 (Homo sapiens, UniProt Q9Y2U5); assay: Binding affinity to human MAP3K2 by KINOMEscan scanMAX assay
T8 sequence (Q9Y2U5 whole entry): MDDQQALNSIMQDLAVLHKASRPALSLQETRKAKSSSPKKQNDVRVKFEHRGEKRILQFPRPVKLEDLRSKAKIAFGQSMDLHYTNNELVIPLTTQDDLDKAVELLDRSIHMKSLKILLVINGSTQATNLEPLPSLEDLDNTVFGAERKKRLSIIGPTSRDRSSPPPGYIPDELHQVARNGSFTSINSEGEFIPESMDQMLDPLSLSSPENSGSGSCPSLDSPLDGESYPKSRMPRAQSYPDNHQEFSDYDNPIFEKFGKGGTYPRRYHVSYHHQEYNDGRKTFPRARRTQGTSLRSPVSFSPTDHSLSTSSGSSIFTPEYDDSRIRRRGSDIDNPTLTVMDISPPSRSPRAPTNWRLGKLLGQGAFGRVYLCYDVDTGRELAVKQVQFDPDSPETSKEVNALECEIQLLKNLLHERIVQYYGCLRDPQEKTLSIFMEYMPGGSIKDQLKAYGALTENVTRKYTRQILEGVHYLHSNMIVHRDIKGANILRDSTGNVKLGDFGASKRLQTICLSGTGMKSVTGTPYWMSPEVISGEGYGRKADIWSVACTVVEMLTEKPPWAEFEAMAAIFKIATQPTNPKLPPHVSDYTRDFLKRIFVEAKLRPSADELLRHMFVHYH

[21] = target: T9, Mitogen-activated protein kinase kinase kinase 2 (Homo sapiens) (UniProt Q9Y2U5); assay: Binding affinity to human MAP3K2 at 1 uM by KINOMEscan scanMAX assay relative to control
T9 sequence (whole entry): T8 sequence (Q9Y2U5 whole entry)

[22] = target: T7, Casein kinase I isoform epsilon; assay: Binding affinity to human CSNK1E at 1 uM by KINOMEscan scanMAX assay relative to control
Target sequence in this assay (P49674 whole entry, looked up, canonical isoform): as the sequence (P49674 whole entry, canonical isoform) above

[23] = target: T6, Ribosomal protein S6 kinase alpha-2; assay: Binding affinity to human N-terminal RSK3 kinase domain 1 by KINOMEscan scanMAX assay
[24] = target: T7, Casein kinase I isoform epsilon; assay: Inhibition of tracer K5 binding to NanoLuc-fused CSNK1E (unknown origin) expressed in HEK293T cells measured after 2 hrs by NanoBRET assay; format: cell-based
Target sequence in this assay (P49674 whole entry, canonical isoform): as the sequence (P49674 whole entry, canonical isoform) above

Compound | pIC50 [2] | pIC50 [4] | pIC50 [5] | pIC50 [7] | deltaTm [9] [K] | deltaTm [14] [K] | deltaTm (Homo sapiens) [K] | deltaTm [19] [K] | further results
CCN(Cc1ccc(Cl)cc1)c1ncc(C(=O)NCCCN2CCCC2=O)c(NC2CCCC2)n1 | < 5.00 | < 5.00 | < 5.00 | < 5.00 | – | – | – | – | Activity (P19 [1]): inactive; Activity (P19 [3]): inactive; Activity (P19 [6]): inactive
O=C(NCCCN1CCOC1=O)c1cnc(NCc2cc(Cl)ccc2Cl)nc1NC1CCCC1 | < 5.00 | < 5.00 | – | 6.15 | -0.2 | 8.6 | 0.2 | 5.6 | pKd [8]: 6.13; Activity [10]: 67%; Activity [11]: 63%; pKd [12]: 6.11; Activity [13]: 61%; deltaTm [15]: 0.2 K; pKd [16]: 6.24; Activity [17]: 73%; Activity [18]: 75%; pKd [20]: 6.16; Activity [21]: 63%; pKi [7]: 6.92; Activity [22]: 76%; pKd [23]: 5.89
O=C(NCCCN1CCCC1=O)c1cnc(NCc2ccc(Cl)cc2Cl)nc1NC1CCCC1 | < 5.00 | < 5.00 | < 5.00 | < 5.00 | 0.1 | 2.3 | 0 | 2.1 | –
Cc1cc(Br)c(CNc2ncc(C(=O)NCCCN3CCOC3=O)c(NC3CCCCC3)n2)cc1Br | < 5.00 | < 5.00 | < 5.00 | 5.06 | -0.5 | 8.4 | 0.1 | 3.8 | pIC50 [24]: 4.66

— ChEMBL document CHEMBL4828765, “Design and Development of a Chemical Probe for Pseudokinase Ca2+/calmodulin-Dependent Ser/Thr Kinase” (J Med Chem, 2021)
